Data as given in ChEMBL document CHEMBL5727333, “3-amino-1,5,6,7-tetrahydro-4H-indol-4-ones” (2019).

Molecular target: Mitotic checkpoint serine/threonine-protein kinase BUB1 (Homo sapiens, UniProt O43683)
Assay: Kinase Assay: In a typical assay 11 different concentrations of each compound (0.1 nM, 0.33 nM, 1.1 nM, 3.8 nM, 13 nM, 44 nM, 0.15 μM, 0.51 μM, 1.7 μM, 5.9 μM and 20 μM) were tested in duplicate within the same microtiter plate. To this end, 100-fold concentrated compound solutions (in DMSO) were previously prepared by serial dilution (1:3.4) of 2 mM stocks in a clear low volume 384-well source microtiter plate (Greiner Bio-One, Frickenhausen, Germany), from which 50 nl of compounds were transferred into a black low volume test microtiter plate from the same supplier. […] The resulting mixture (5 μL final volume) was incubated at 22° C. during 60 min., and the reaction was stopped by the addition of 5 μL of an aqueous EDTA-solution (50 mM EDTA, in 100 mM HEPES pH 7.5 and 0.2% (w/v) bovine serum albumin) which also contained the TR-FRET detection reagents (0.2 μM streptavidin-XL665 [Cisbio Bioassays, Codolet, France] and 1 nM anti-phosho-Serine antibody [Merck Millipore, cat. #35-002] and 0.4 nM LANCE EU-W1024 labeled anti-mouse IgG antibody [Perkin-Elmer, product no. AD0077, alternatively a Terbium-cryptate-labeled anti-mouse IgG antibody from Cisbio Bioassays can be used]). The stopped reaction mixture was further incubated 1 h at 22° C. in order to allow the formation of complexes between peptides and detection reagents.

Sequence of Mitotic checkpoint serine/threonine-protein kinase BUB1 (O43683 whole entry): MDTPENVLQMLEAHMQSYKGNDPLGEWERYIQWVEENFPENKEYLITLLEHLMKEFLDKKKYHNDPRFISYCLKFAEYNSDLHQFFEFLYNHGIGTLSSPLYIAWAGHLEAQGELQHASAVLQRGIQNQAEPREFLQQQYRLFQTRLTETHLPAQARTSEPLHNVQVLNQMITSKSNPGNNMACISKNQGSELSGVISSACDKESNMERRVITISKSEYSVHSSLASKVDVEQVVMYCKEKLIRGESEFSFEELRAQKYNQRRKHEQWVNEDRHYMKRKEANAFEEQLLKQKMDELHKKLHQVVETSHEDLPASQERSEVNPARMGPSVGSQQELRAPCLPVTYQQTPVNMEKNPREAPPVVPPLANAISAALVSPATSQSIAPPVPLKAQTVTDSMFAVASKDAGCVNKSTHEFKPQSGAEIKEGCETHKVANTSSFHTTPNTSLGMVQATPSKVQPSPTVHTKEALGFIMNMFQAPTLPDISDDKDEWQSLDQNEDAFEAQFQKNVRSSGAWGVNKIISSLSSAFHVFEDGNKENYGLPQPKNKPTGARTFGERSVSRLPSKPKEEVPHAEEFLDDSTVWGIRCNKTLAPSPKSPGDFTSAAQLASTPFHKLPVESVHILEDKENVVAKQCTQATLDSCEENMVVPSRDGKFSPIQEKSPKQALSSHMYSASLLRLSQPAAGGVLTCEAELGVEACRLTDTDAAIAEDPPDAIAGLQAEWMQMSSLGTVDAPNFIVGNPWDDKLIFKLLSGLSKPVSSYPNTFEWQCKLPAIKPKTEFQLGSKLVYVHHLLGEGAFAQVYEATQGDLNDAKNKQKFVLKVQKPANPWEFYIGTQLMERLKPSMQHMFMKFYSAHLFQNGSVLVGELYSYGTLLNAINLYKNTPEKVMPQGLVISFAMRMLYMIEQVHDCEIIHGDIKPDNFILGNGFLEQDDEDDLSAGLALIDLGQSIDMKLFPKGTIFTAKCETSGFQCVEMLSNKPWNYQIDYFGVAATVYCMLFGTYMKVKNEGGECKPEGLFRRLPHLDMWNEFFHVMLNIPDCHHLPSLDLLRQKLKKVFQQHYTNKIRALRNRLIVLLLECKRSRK

SMILES	IC50 [nM]
CC(=O)Nc1cc(-c2[nH]c3c(c2Nc2ccc(F)cc2)C(=O)CCC3)ccn1	58.9
CC1(C)CC(=O)c2c([nH]c(-c3ccnc(Nc4cccc(F)c4)c3)c2Nc2cccc(F)c2)C1	497
Cc1cccc(Nc2c(-c3ccncc3)[nH]c3c2C(=O)CC(C)(C)C3)c1F	85.5
CC1(C)CC(=O)c2c([nH]c(-c3ccnc(NS(C)(=O)=O)c3)c2Nc2ccccc2)C1	733
CC1(C)CC(=O)c2c([nH]c(-c3ccnc(Cl)c3)c2Nc2ccccc2)C1	53.6
CC1(C)CC(=O)c2c([nH]c(-c3ccnc(Br)c3)c2Nc2ccccc2)C1	99.8
CS(=O)(=O)Nc1cc(-c2[nH]c3c(c2Nc2ccccc2)C(=O)CCC3)ccn1	6660
CC(C)Oc1cccc(Nc2c(-c3ccncc3)[nH]c3c2C(=O)CC(C)(C)C3)c1	1170
